# Experimental data from patent US20110269699A1, “CANCER THERAPY” (priority 2008, published 2011).
# What was measured:
# Type in all cases: cell-based, mouse
# [1] = tested on: 4242Eμ-myc lymphomas; experiment: In vitro cell death analysis (parental control of the Bcl-XL experiment)
# Protocol: (§1) To determine if increased expression of Bcl-XL could confer resistance to romidepsin, 4242Eμ-myc/Bcl-XL lymphomas were produced and tested for sensitivity to HDACi.
# Eμ-myc lymphoma cells (5×10^5/mL) were incubated in the presence of the indicated compounds for 20 h in 1 mL cell culture medium in 24-well plates (Greiner Bio-One). Viability of cells as measured by trypan blue exclusion assay, propidium iodide uptake, Annexin V staining, cell cycle analysis, or tetramethylrhodamine ethyl ester staining were done as described (Lindemann et al., Proc. Nat. Acad. Sci. USA 104:8071-8078, 2007).
# [2] = tested on: Eμ-myc lymphomas; experiment: In vitro cell death analysis (propidium iodide staining, loss of MOMP)
# Protocol: (§2) Three different primary Eμ-myc lymphomas overexpressing Bcl-2 and control vector-transduced Eμ-myc cells were tested for sensitivity to the histone deacetylase inhibitors (HDACi) oxamflatin and romidepsin.
# (§3) The primary function of prosurvival Bcl-2 proteins is to inhibit the activity of Bak and Bax proteins and thereby protect the mitochondrial membrane from damage (Cory et al., Nat. Rev. Cancer 2:647-656, 2002). To determine if the induction of apoptosis mediated by romidepsin in 4242Eμ-myc/Bcl-2 and 229Eμ-myc/Bcl-2 lymphomas was via perturbation of the mitochondrial membrane or through some other mechanism, HDACi-induced mitochondrial outer membrane permeabilization (MOMP) was quantitated by staining with tetramethylrhodamine ethyl ester (Molecular Probes).
# (§4) […] Viability of cells as measured by trypan blue exclusion assay, propidium iodide uptake, Annexin V staining, cell cycle analysis, or tetramethylrhodamine ethyl ester staining were done as described (Lindemann et al., Proc. Nat. Acad. Sci. USA 104:8071-8078, 2007).
# [3] = tested on: Eμ-myc/Bcl-2 lymphomas; experiment: as above
# Protocol: as §2, §3, §4
# [4] = tested on: 226Eμ-myc/Bcl-2 lymphomas; experiment: Cell cycle analysis of Eμ-myc/Bcl-2 cells treated with HDACi; conditions: 226/Bcl-2
# Protocol: (§5) Next, the cell cycle profiles of Eμ-myc/Bcl-2 lymphomas treated with oxamflatin and romidepsin over 3 days were assessed.
# as §4
# [5] = tested on: 4242Eμ-myc/Bcl-2 lymphomas; experiment: as above; conditions: 4242/Bcl-2
# Protocol: as §5, §4
# [6] = tested on: acetylated histones H3 and H4; experiment: Western blot analysis of histone acetylation status; conditions: 4242Eμ-myc lymphomas; 3.0 nmol/L romidepsin, 0.1 mmol/L oxamflatin; 24-h time course
# Protocol: Eμ-myc lymphoma cells were lysed in lysis buffer [0.15 mol/L NaCl, 10 mmol/L Tris-HCl (pH 7.4), 5 μmol/L EDTA, 1% Triton X-100] supplemented with protease inhibitors (leupeptin, pepstatin, and phenylmethylsulfonyl fluoride; Sigma-Aldrich) as described previously (Lindemann et al., Proc. Nat. Acad. Sci. USA 104:8071-8078, 2007). Proteins (30-50 μg) were separated on 10% or 15% SDS polyacrylamide gels electroblotted onto Immobilon-P […] membranes (Millipore). Membranes were incubated with the following antibodies: anti-mouse Bcl-2 (BD PharMingen), anti-mouse Bcl-XL (BD PharMingen), anti-mouse Bcl-w (Chemicon Australia), anti-mouse Mcl-1 (Rockland), anti-mouse A1 (Sapphire Biosciences), anti-Flag tag (Sigma-Aldrich), anti-acetylated histone H3 and antiacetylated histone H4 (Upstate Biosystems), anti-β actin (Sigma-Aldrich), and anti-tubulin (Sigma-Aldrich) overnight at 4° C. followed by subsequent incubation with horseradish peroxidase-conjugated secondary antibodies (DAKO) Immunoreactive bands were visualized by enhanced chemiluminescence (Amersham).
# [7] = tested on: 4242Eμ-myc/Bcl-XL lymphomas; experiment: In vitro cell death analysis of Bcl-XL overexpressing lymphomas
# Text: as §1, §4
# [8] = increasing concentrations over 24 h
substance,measurement,setting,value
Oxamflatin,plasma membrane integrity and mitochondrial function,[1]; [8],dose-dependent loss of plasma membrane integrity and mitochondrial function
same,cell cycle analysis: DNA fragmentation,[1]; increasing doses,DNA fragmentation occurred
same,cell killing in time course,"[1]; parental Eμ-myc lymphomas, within the first 24 h, 3 nmol/L romidepsin or 0.1 μmol/L oxamflatin",effectively killed
same,"cell killing (outer cell membrane damage, loss of mitochondrial membrane potential)",[2]; 24-h dose-response assay,could effectively kill
same,concentration of HDACi required to kill ˜70% of Eμ-myc lymphomas following 24-h treatment,[2]; 24-h treatment,0.1 µmol/L
same,cell killing in time course,"[3]; 0.1 μmol/L, 72 h of continuous exposure",conferred resistance to oxamflatin
same,"cell killing (outer cell membrane damage, loss of mitochondrial membrane potential)","[3]; 24-h dose-response assay, Bcl-2 overexpressing",but not Eμ-myc/Bcl-2 lymphomas
same,% G1,[4]; 24 hr,50.0%
same,% G2/M,[4]; 24 hr,28.8%
same,% S phase,[4]; 24 hr,14.4%
same,% subG1,[4]; 24 hr,2.7%
same,% G1,[4]; 48 hr,62.6%
same,% G2/M,[4]; 48 hr,21.4%
same,% S phase,[4]; 48 hr,10.8%
same,% subG1,[4]; 48 hr,2.6%
same,% G1,[4]; 72 hr,78.2%
same,% G2/M,[4]; 72 hr,12.0%
same,% S phase,[4]; 72 hr,2.5%
same,% subG1,[4]; 72 hr,6.5%
same,% G1,[5]; 24 hr,59.4%
same,% G2/M,[5]; 24 hr,18.0%
same,% S phase,[5]; 24 hr,8.2%
same,% subG1,[5]; 24 hr,8.4%
same,% G1,[5]; 48 hr,62.3%
same,% G2/M,[5]; 48 hr,15.3%
same,% S phase,[5]; 48 hr,8.4%
same,% subG1,[5]; 48 hr,5.9%
same,% G1,[5]; 72 hr,66.7%
same,% G2/M,[5]; 72 hr,15.8%
same,% S phase,[5]; 72 hr,9.7%
same,% subG1,[5]; 72 hr,4.6%
same,acetylation of histones H3 and H4,[6],induced equivalent acetylation of histones H3 and H4
same,plasma membrane integrity and mitochondrial function,[7]; [8],unaffected
same,cell cycle analysis,[7]; increasing doses,arrested in the G1 phase
